We go through 3 molecules from patent publication US11787849B2, “Methods and compounds for eliminating immune responses to therapeutic agents” (IMCYSE SA, priority 2015, dated 2023).

The test system of experiment [1] is CD4+ T cells. Kind of experiment: Vaccination with peptide (redox motif + epitope) adsorbed on aluminum hydroxide, SC: induction of cytolytic CD4+ T cells. Format: in vivo, human. The source says:
A vaccination strategy making use of a mixture of two peptides encompassing the minimal binding sequence of class II-restricted epitopes and a thioreductase motif is therefore established.
Administration of a mixture of these two peptides adsorbed on aluminum hydroxide elicits specific CD4+ T cells with cytolytic properties.
Patients in need for EPO injection are vaccinated by administration of peptide [SEQ ID NO:18] using a standard procedure of peptide adsorbed on aluminum hydroxide and administered by SC injection.
Patients affected by Fabry disease are immunized with peptide of SEQ ID NO:21, using a standard procedure of peptide adsorbed on aluminium hydroxide and administered by SC injection.
The mammalian expression vector pCMV with cytomegalovirus promotor is engineered to allow the expression in CHO (Chinese hamster ovary) cells of any protein for replacement therapy, in fusion with the promiscuous CLIP-derived epitope described in example 2 [SEQ ID NO:17]. Patients in need for injection with a protein for replacement therapy are first vaccinated by administration of a peptide comprising a thioreductase motif and the modified CLIP-derived epitope described in example 2 [SEQ ID NO:18].

Experiment [2] concerns CD4+ T cells. The following applies: peptide adsorbed on aluminum hydroxide, SC injection; known from WO200817517; cited from earlier work.
In another experiment the test system is cytolytic CD4+ T cells. Kind of experiment: Administration of epitope-tagged therapeutic protein to a previously vaccinated / cell-treated individual: activation of cytolytic CD4+ T cells and immune response to the protein. Format: in vivo, human. The settings on record: individual pretreated with the matching redox-motif peptide or with autologous cells activated by it.

Regarding “CPYC-LF-LKSDGRVKYTLN (CPYCLFLKSDGRVKYTLN; CxxC + redox motif apolipoprotein B-100 epitope) [SEQ ID NO:21]”, in the experiment with CD4+ T cells [1], the “elicitation of specific CD4+ T cells with cytolytic properties” value is given as “Epitope-specific cytolytic CD4+ T cells are then produced”.

For the molecule “CPYC-VR-FFMATRLLMQAL (CPYCVRFFMATRLLMQAL; CxxC redox motif + modified clip peptide) [SEQ ID NO:18]”, the “elicitation of epitope-specific cytolytic CD4+ T cells” value in the experiment with CD4+ T cells [2] is “elicit epitope-specific cytolytic CD4+ T cells”.

B1: modified alpha-galactosidase: recombinant alpha-galactosidase modified to contain the LFLKSDGRVKYTLN promiscuous epitope (protein)
chain: LFLKSDGRVKYTLNDNGLARTPTMGWLHWERFMCNLDCQEEPDSCISEKLFMEMAELMVSEGWKDAGYEYLCIDDCWMAPQRDSEGRLQADPQRFPHGIRQLANYVHSKGLKLGIYADVGNKTCAGFPGSFGYYDIDAQTFADWGVDLLKFDGCYCDSLENLADGYKHMSLALNRTGRSIVYSCEWPLYMWPFQKPNYTEIRQYCNHWRNFADIDDSWKSIKSILDWTSFNQERIVDVAGPGGWNDPDMLVIGNFGLSWNQQVTQMALWAIMAAPLFMSNDLRHISPQAKALLQDKDVIAINQDPLGKQGYQLRQGDNFEVWERPLSGLAWAVAMINRQEIGGPRSYTIAVASLGKGVACNPACFITQLLPVKRKLGFYEWTSRLRSHINPTGTVLLQLENTMQMSLKDLL
modifications: apolipoprotein B-100 epitope + alpha galactosidase
As for B1, the “immune response towards the therapeutic protein” value in the experiment on cytolytic CD4+ T cells is listed as “does not elicit an immune response to alpha-galactosidase”.
